Experimental data published in patent publication US6664271B1, “Immunopotentiator agents” (Eli Lilly and Company, priority 1999, dated 2003).
Marks after values point to notes of the source that are not given here.

Columns and labels:
[1] = test system: E. coli; test: colibacillosis infection model in broiler chickens, Trial A (Example 78); type: in vivo, chicken; settings: 2 μg/chick subcutaneous
[2] = test system: chicken leukocytes; test: cells; type: cell-based; settings: for minimal effective concentration: Gallus gallus, Leukocyte, read-out: MSC (Minimum Stimulatory Concentration)
Description: Various compounds of Formula I were evaluated for in vitro T-lymphocyte blastogenic activity with chicken leukocytes according to the steps described in the following procedure:
(a) Exsanguination step. The leukocytes were obtained from 3-6 week old Hubbard/Peterson broiler chickens. Initially, the chickens were rendered unconscious in a CO2 chamber. The chickens were then exsanguinated via cardiac puncture. In the exsanguination procedure, a syringe was connected to a needle, and the needle was inserted into the area at the base of the neck under the “V” formed by the breast and sternum. After the needle was properly inserted, continuous vacuum was applied to a syringe (connected to the needle) by pulling back on the plunger. It is important to promptly carry out this withdrawal action, because there is only a 10-15 seconds time period after the blood has starting flowing into the syringe before the blood coagulates, and becomes unusable. As soon as the syringe is full (or prior to complete filling if too much time has elapsed such that the blood begins to coagulate), the whole uncoagulated blood is transferred to a tube having the anticoagulant EDTA therein. The tube is then rotated to mix the whole blood and the EDTA. Alternatively, the whole blood can be withdrawn directly into a vacuum container already having EDTA therein, rather than into a syringe.
(b) Leukocyte isolation step. Numerous methods for isolating leukocytes from (uncoagulated) whole blood are known in the art. In a preferred method, the sterile whole blood was combined with methylcellulose (1.5:1). Any blood containing clots was discarded. The mixture was centrifuged at 30×g for ten minutes (300 rpm on Beckman GS-6R centrifuge). The top layer (leukocytes in supernatant) was decanted into a sterile 50 ml conical tube, while taking care to prevent contamination of the sample by red blood cells. The decanted layer was then centrifuged at 200×g for ten minutes (1500 rpm on the Beckman GS-6R centrifuge). The supernatant liquid was discarded, and the resulting cell “pellet” was retained.
The cells were then washed in a solution containing 10 ml PBS (phosphate buffered saline) and Gentamycin (gentamicin sulfate) at a concentration of 50 μg/ml. This solution was centrifuged at 100×g (1000 rpm on the Beckman centrifuge) for five minutes, and the supernatant liquid was discarded. The washing step (including the centrifuging at 100×g) was repeated to ensure complete removal of the methylcellulose. The use of media such as DMEM ([…]) was avoided in the washing steps, since such media may cause agglutination of the white blood cells. Finally, the cells were then suspended in an appropriate media, such as RPMI 1640 tissue cell culture medium, supplemented with phenol red, NaHCO3, and L-Glutamide. Supplemented RPMI 1640 is available from Sigma-Aldrich Chemical Co.
(c) Cell counting and cell viability step. The cells were counted and checked for viability using the Trypan Blue method of exclusion. 0.1 ml of the cell suspension was placed in a 4-5 ml small culture tube along with 0.7 ml HBSS (Hank's Buffered Saline Solution), available from Sigma-Aldrich, and 0.2 ml of a 0.4% solution of aqueous Trypan Blue stain, available from GIBCO BRL, of Grand Island, N.Y. The components were mixed thoroughly but gently, and allowed to sit for 5 minutes (no longer than 15 minutes). The components should not be exposed to the stain for extended periods of time, because such extended exposure may permit viable cells, as well as non-viable cells, to take up dye.
A cover slip was placed on a Bright Line hemacytometer, available from Howser Scientific, and 10 μl of the mixture from the tube was transferred to each chamber. Non-viable cells appear blue under a microscope. The viable cells in one of the 16-square corners of the hemacytometer were then counted. […]

[3] = test system: E. coli 19B; test: bacterial clearance of E. coli from peripheral blood of neonatal chicks (Example 77); type: in vivo, chick; settings: single subcutaneous injection of 25 μg, E. coli challenge, blood 14-18 hours post-challenge
Description: The compounds of Example 15 ((S)-ethyl 1-benzoyl-3-piperidinecarboxylate), Example 29 (1-benzoyl-3-butyrylpiperidine), Example 30 ((S)-ethyl 1-(2-thiopheneacetyl)-3-piperidinecarboxylate) and Example 68 ((S)-ethyl 1-benzyl-3-piperidinecarboxylate 1-methiodide), respectively, were tested to determine whether a single subcutaneous injection enhanced the bacterial clearance of E. coli from the peripheral blood of neonatal chicks. Bacterial clearance is a measurement of cell-mediated immunity, specifically, phagocyte function, in animals. An approved Animal Care and Use Committee protocol governed the activity in this experiment.
1 ml syringes with 21 g 1″ needles (Becton Dickinson and Company Franklin Lakes, N.J. 07417-1884); 1 ml syringe with 25 g ⅝″ needles (Becton Dickinson and Company Franklin Lakes, N.J. 07417-1884); EMB agar plates (Difco Laboratories, Becton Dickinson Microbiology Systems, Sparks, Md. 21152); Culture tubes (14 ml polystyrene round bottom, Becton Dickinson Labware, Franklin Lakes, N.J. 07417-1886); Dulbecco's Phosphate Buffered Saline w/o Mg^++ or Ca^++ (Gibco BRL, Life Technologies Rockville, Md. 20850). Peterson x Hubbard male chicks (day of hatch from a commercial hatchery) were utilized
160 chicks were divided into 6 groups: Group 1=Controls (acetate-buffered saline vehicle); Group 2=Compound of Example 15 ((S)-ethyl 1-benzoyl-3-piperidinecarboxylate); Group 3=Compound of Example 29 (1-benzoyl-3-butyrylpiperidine); Group 4=Compound of Example 30 ((S)-ethyl 1-(2-thiopheneacetyl)-3-piperidinecarboxylate); Group 5=Compound of Example 68 ((S)-ethyl 1-benzyl-3-piperidinecarboxylate 1-methiodide); and Group 6=environmental controls. Groups 1-5 contained 3 replicates of 10 chicks each and Group 6 contained 1 replicate of 10 chicks.
Day −2 Upon arrival, day of hatch chicks were randomized (10/group), and placed in a Petersime heated brooder battery unit (Petersime Incubator Company, Gettysburg, Ohio 45328). […] All chicks were given ad libitum access to a commercially available starter feed and water.
Day 0 11:00 AM. Five to ten colonies of E. coli 19B were selected from a fresh overnight blood agar plate (TSA II with 5% sheep blood, Becton Dickinson Microbiology Systems Cockeysville, Md. 21030) and placed into 100 ml Brain Heart Infusion broth (Difco Laboratories, Becton Dickinson Microbiology Systems Sparks, Md. 21152) in a flask. […]
Day 5 EMB plates were removed from the incubator and bacterial colonies were counted and recorded to calculate CFU/ml/chick.
Data was transformed to logio values, and analysis of variance was used to determine significant differences between the treatment groups and controls. Data was expressed as the percentage of enhancedbacterial clearance compared to E. coli-challenged controls. […]

[4] = chicken leukocytes, read at 72 hours
[5] = Hubbard/Peterson broiler, chicken, 72 h

Compound | minimal effective concentration [2, 4] | MTC (Maximum Tolerable Concentration prior to causing cytotoxicity) [2, 5] | MSC (Minimum Stimulatory Concentration) [2, 4] | also measured
CCOC(=O)C1CN(C(=O)NC)CCC1=O (centres unmarked) [Example 11, Ethyl 1-(N-Methylaminocarbonyl)-4-oxo-3-piperidinecarboxylate] | 0.001 µg/mL | 1 µg/mL | – | % Colibacillosis-associated Mortality [1]: 14.0%; % Total Mortality [1]: 16.5* %; Average Weight Gain/Bird [1]: 1.40 lb (635 g); Feed/Gain [1]: 1.35
CCOC(=O)[C@H]1CCCN(C(=O)c2ccccc2)C1 [Example 15, (S)-Ethyl 1-Benzoyl-3-piperidinecarboxylate] | 0.1 µg/mL | 10 µg/mL | – | % Enhanced Clearance Compared to Controls [3]: 34* %
CCCC(=O)C1CCCN(C(=O)c2ccccc2)C1 (centres unmarked) [Example 29, 1-Benzoyl-3-butyrylpiperidine] | 1 µg/mL | 10 µg/mL | – | % Enhanced Clearance Compared to Controls [3]: 33* %
O=C(O)[C@H]1CCCN(C(=O)c2ccccc2)C1 [Example 50, (S)-1-Benzoyl-3-piperidinecarboxylic Acid] | 1 µg/mL | 10 µg/mL | – | –
COC(=O)[C@H]1CCCN(C(=O)c2ccccc2)C1 [Example 52, (S)-Methyl 1-Benzoyl-3-piperidinecarboxylate] | 0.1 µg/mL | 10 µg/mL | – | –
CCCOC(=O)[C@H]1CCCN(C(=O)c2ccccc2)C1 [Example 53, (S)-Propyl 1-Benzoyl-3-piperidinecarboxylate] | 1 µg/mL | 10 µg/mL | – | –
CCOC(=O)[C@H]1CCCN(CCCc2cccs2)C1 [Example 54, (S)-Ethyl 1-(2-Thienylpropyl)-3-piperidinecarboxylate] | 1 µg/mL | 10 µg/mL | – | –
CCOC(=O)C1CC(C)CN(C(=O)Cc2cccs2)C1 (centres unmarked) [Example 57, Ethyl 1-(2-Thiopheneacetyl)-5-methyl-3-piperidinecarboxylate] | 10 µg/mL | 10 µg/mL | – | –
O=C(Cc1cccs1)N1CCC[C@H](CO)C1 [Example 59] | – | – | 10 µg/mL | MTC (Maximum Tolerable Concentration prior to causing cytotoxicity) [2, 4]: 100 µg/mL
CCOC(=O)C1CN(C(=O)Cc2cccs2)CCC1C (centres unmarked) [Example 62, Ethyl 1-(2-Thiopheneacetyl)4-methyl-3-piperidinecarboxylate] | 1 µg/mL | 10 µg/mL | – | –
O=C[C@H]1CCCN(C(=O)Cc2cccs2)C1 [Example 63, (S)-1-(2-Thiopheneacetyl)-3-piperidinecarboxaldehyde] | 1 µg/mL | 10 µg/mL | – | –
N#C[C@H]1CCCN(C(=O)Cc2cccs2)C1 [Example 64, (S)-1-(2-Thiopheneacetyl)-3-piperidinonitrile] | 1 µg/mL | 10 µg/mL | – | –
CCOC(=O)C1CCC[N@+](C)(Cc2ccccc2)C1.[I-] (stereo partly drawn) [Example 68, (S)-Ethyl 1-Benzyl-3-piperidinecarboxylate 1-methiodide] | – | – | 1 µg/mL | % Enhanced Clearance Compared to Controls [3]: 50* %
CN(C)C(=O)C1CCC[N@+](C)(Cc2ccccc2)C1.[I-] (stereo partly drawn) [Example 71, (S)-N,N-Dimethyl 1-Benzyl-3-piperidinecarboxamide 1-methiodide] | – | – | 0.1 µg/mL | –
(S)-Ethyl 1-(2-Thiazyl)-3-piperidinecarboxylate 1-methiodide [Example 73] | – | – | 1 µg/mL | –
Ethyl 1-(2-Bromobenzoyl)-2-acetylpiperidinecarboxylate [Example 45] | – | – | 1 µg/mL | –
